Columns and labels:
IDH1 (R132H) = IDH1 (R132H) (Homo sapiens (Human), UniProt O75874, R132H); assay: Enzyme assay, IDH1m inhibition (NADPH decrease, diaphorase/resazurin); assay type: biochemical; settings: 40 nM enzyme, 16 h pre-incubation at 23° C.
Source text: (§1) Resazurin is a traditional redox dye, and after a redox reaction, it can be reduced from a blue resazurin without fluorescence to a pink fluorescent substance, resorufin, which can be measured and quantified with relative fluorescence unit (RFU) of fluorophotometer (Ex=530-570 nm, Em=590-620 nm). At present, resazurin is widely used for determining the viability of bacteria, cells, etc. and the enzyme activity detection of oxidoreductase. We detected the decrease of cofactor NADPH to determine the inhibitory activity of a compound against IDH1m and detected the generation of cofactor NADPH to determine the inhibitory activity of a compound against IDH WT. The compound was pre-incubated with IDH1m and NADPH, and then the reaction was initiated by adding α-KG and performed for certain time under a linear condition. Then, diaphorase (lipoamide dehydrogenase) and the corresponding substrate resazurin were added thereto for detection. Lipoamide dehydrogenase terminated the IDH1m reaction by decreasing the available cofactor NADPH, which oxidized NADPH to NADP, and reduced resazurin to high fluorescent resorufin. The amount of the remaining cofactor NADPH after a specific reaction time was quantified via an easily detectable fluorophore.
(§2) The specific operation was as follows: 2.5 μl of the compound diluted in a 3-fold gradient was added to a 384-well plate, followed by adding 5 μl of the reaction buffer (20 mM Tris-HCl, pH 7.5; 150 mM NaCl; 10 mM MgCl2; 0.4 mg/mL BSA (Bovine Serum Albumin) and 2 mM DTT (dithiothreitol)) containing 40 nM IDH1 (R132H/R132C) and 20 μM NADPH. Then, the above test mixture was incubated at 23° C. for 16 hours, and then 2.5 μl of the reaction buffer containing 4 mM α-KG was added to initiate the reaction. After they were incubated for 60 minutes at room temperature, 5 μl of the termination mixture (0.4 U/ml diaphorase and 20 μM resazurin) formulated with the reaction buffer was added to convert resazurin to resorufin, so as to measure the amount of the remaining NADPH. After incubating at 23° C. for 10 minutes, fluorescence values were determined through Flexstation 3 at Ex535/Em595. The enzyme activity of each compound was respectively determined at 12 concentrations, and the data were calculated using the software GraFit6.0 (Erithacus Software) to obtain the IC50 value of each compound.

IDH1 (R132C) = IDH1 (R132C) (Homo sapiens (Human), UniProt O75874, R132C); assay: as above; assay type: biochemical; settings: 40 nM enzyme, 16 h pre-incubation at 23° C.
Source text: as §1, §2

U87/IDH1 (R132H) cells = assay: Inhibitory activity on IDH1-mutated U87 cells (2-HG determination); assay type: cell-based; settings: Homo sapiens, U-87 MG
Description: In the presence of 2-HG, phosphoglycerate dehydrogenase PHGDH can reduce NAD to NADPH, and the latter may be quantitatively determined by lipoamide dehydrogenase and the substrate thereof, resazurin.
U87 cell is a human glioblastoma cell line with an IDH1 mutation (R132H).
Cells was digested with trypsin, and inoculated into a 6-well plate at a density of 5×10^5, and cultured overnight in an incubator at 37° C. […] Culture medium of each sample was sucked out and centrifuged at 1000 rpm for 10 min. The supernatant was sucked out to detect the content of 2-HG therein. Additionally, cells were washed with PBS (phosphate buffered saline), digested with trypsin and collected. After the collected cells were washed with PBS for one time, the determination of intracellular 2-HG content was performed.
The method for determining the intracellular 2-HG was as follows: cells were re-suspended with 300 μL reaction buffer (40 mM Tris-HCl, pH 8.5; 150 mM NaCl) and disrupted by ultrasonication. They were centrifuged for 10 min at 12,000 rpm and 4° C. to remove insoluble substances. 25 μL supernatant was sucked out to determine the protein concentration by a BCA kit. […]
The measured fluorescence values were compared after being corrected with the protein concentrations of the corresponding samples.

Chain of IDH1 (R132H) (O75874 whole entry R132H): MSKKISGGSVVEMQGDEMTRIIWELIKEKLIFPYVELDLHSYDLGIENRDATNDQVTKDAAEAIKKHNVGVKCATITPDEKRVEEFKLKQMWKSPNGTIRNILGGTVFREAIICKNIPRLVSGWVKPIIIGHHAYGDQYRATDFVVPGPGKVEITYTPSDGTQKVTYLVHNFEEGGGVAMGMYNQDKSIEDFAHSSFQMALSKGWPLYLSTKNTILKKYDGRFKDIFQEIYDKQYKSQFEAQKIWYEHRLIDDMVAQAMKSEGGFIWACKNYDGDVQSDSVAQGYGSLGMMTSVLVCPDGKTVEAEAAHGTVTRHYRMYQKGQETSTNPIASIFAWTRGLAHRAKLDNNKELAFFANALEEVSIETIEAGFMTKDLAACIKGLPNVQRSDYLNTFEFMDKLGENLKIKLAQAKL
Chain of IDH1 (R132C) (O75874 whole entry R132C): as the sequence (O75874 whole entry R132H) above, with H132C counted along it

IC50 (IDH1 (R132H)): < 20 nM
IC50 (IDH1 (R132C)): < 20 nM
IC50 (U87/IDH1 (R132H) cells): 6.7 nM
Compound: N#Cc1ccnc(N2[C@H](C(=O)N(c3cncc(F)c3)[C@H](C(=O)NC3CC(F)(F)C3)c3ccccc3Cl)CCS2(=O)=O)c1 [Example 2, (S)—N—((S)-1-(2-chlorophenyl)-2-((3,3-difluorocyclobutyl)amino)-2-oxoethyl)-2-(4-cyanopyridin-2-yl)-N-(5-fluoropyridin-3-yl)-isothiazolidine-3-carboxamide 1,1-dioxide]

— US11111240B2, “Sultam compound and application method thereof” (Chia Tai Tianqing Pharmaceutical Group Co., Ltd., priority 2016, dated 2021)
